pIC50: −log10 of the molar value. Where two headings read alike, the source gives them in different places.
Key:
human MRP2 = human MRP2 (Homo sapiens, UniProt Q92887); assay: cell-based
Protocol: Stably transfected MDCK-II-MRP2 cells overexpressing human MRP2 were a kind gift from A. Schinkel ([…], The Netherlands). Cells were cultured in a controlled atmosphere at 37 °C, 5% CO2. The culture medium was composed of DMEM Glutamax (Dulbecco’s Modified Eagle Medium, 4.5 g/L D-glucose, pyruvate) supplemented with 10% fetal bovine serum and 1% antibiotics (penicillin and streptomycin 5000 U/mL). MRP2-mediated transport was assessed using the calcein-AM assay. Cells were seeded in 24-well plates (30,000 cells per well) in 500 μL of culture medium. […] After 30 min at 37 °C, the incubation buffer was removed and cell monolayers were rapidly washed with 300 μL of ice-cold buffer (Dulbecco’s phosphate buffered saline + CaCl2 + MgCl2). Cells were then lysed by 10 min of incubation with 500 μL of NaOH (10 mM). […] For each inhibitor, uptake data were normalized to describe the extent of inhibition from 0 to maximal (100%) inhibition.

rats = details: rat, in vivo
[1] = system: hepatic OATP and MRP2 activity; details: rat; lowest doses: DTZ 10 mg/kg s.c., CsA 0.01 mg/kg i.v.
Protocol: [^99mTc]mebrofenin scintigraphy was performed using a clinical SPECT-CT camera (Symbia®, Siemens, Knoxville, TN, USA) with a Low Energy High Resolution (LEHR) collimator. In each session, 3 rats were placed in a row on the scanner bed and catheters were inserted in the caudal vein. Experiments were performed for control conditions or after injection of the different transporter inhibitors. RIF (40 mg/kg intravenously, i.v.) was injected immediately before [^99mTc]mebrofenin as previously described [33]. […] Rats were injected with [^99mTc]mebrofenin (39 ± 4 MBq, i.v.) followed by dynamic planar acquisitions. Acquisitions were terminated by a X-ray CT scan.
Images were analyzed with PMOD® software (version 3.9, PMOD Technologies LLC). Regions of interest (ROI) were manually drawn on the liver, intestine, heart (= image-derived blood curve) and urinary bladder. Corresponding TACs were generated by plotting the mean radioactivity amount in each ROI normalized to the injected dose in each animal (cps/MBq) versus time.

[2] = system: hepatic OATP and MRP2 activity; set-up: method as in PMID 23440558; details: cited from earlier work
[3] = mice, lowest tested dose 12.5 mg/kg i.v. followed by 3.12 mg/kg intraperitoneal

Chain of human MRP2 (Q92887 whole entry): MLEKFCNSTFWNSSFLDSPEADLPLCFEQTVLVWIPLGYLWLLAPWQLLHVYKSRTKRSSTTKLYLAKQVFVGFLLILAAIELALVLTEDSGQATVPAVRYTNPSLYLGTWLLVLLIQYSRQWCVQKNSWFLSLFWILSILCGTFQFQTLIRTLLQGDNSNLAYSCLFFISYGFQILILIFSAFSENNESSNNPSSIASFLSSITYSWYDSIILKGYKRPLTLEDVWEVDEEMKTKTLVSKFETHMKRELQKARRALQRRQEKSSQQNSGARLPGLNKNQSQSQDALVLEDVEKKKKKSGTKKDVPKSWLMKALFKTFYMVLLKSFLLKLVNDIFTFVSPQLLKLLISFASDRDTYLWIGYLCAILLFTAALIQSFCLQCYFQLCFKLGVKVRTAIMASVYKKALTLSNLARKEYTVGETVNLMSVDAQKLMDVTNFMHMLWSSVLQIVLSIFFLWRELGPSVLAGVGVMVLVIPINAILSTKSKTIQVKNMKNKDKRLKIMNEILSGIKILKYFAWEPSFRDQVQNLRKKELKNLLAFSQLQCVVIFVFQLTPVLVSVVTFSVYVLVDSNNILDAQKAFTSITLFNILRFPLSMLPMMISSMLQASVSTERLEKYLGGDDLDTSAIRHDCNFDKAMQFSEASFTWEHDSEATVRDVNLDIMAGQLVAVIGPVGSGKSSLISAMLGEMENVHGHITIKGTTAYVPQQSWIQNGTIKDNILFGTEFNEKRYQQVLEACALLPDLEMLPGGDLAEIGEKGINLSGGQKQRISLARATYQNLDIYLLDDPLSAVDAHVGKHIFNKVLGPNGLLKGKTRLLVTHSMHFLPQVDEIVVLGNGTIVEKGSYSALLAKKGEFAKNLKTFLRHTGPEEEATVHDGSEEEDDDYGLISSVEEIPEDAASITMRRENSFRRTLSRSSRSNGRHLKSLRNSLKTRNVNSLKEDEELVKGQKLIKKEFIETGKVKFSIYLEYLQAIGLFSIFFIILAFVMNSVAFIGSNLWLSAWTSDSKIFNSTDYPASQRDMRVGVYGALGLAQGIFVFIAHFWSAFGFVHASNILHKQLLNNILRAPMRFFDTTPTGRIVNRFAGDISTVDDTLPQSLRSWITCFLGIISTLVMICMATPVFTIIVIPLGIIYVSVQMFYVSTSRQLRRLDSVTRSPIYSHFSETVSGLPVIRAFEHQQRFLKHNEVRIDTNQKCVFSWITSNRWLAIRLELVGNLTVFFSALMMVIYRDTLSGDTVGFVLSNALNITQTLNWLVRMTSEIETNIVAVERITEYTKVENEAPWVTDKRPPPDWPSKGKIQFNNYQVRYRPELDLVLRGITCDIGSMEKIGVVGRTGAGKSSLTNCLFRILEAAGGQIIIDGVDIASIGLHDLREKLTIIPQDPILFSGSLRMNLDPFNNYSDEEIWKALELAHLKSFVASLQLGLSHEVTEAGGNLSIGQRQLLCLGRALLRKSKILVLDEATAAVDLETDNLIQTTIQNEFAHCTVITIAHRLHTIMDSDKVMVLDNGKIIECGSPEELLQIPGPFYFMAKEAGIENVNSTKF

Row | concentration achieving full MRP2 inhibition (human MRP2; MDCK-II-MRP2 cells, calcein-AM assay) | SMILES | pIC50 (human MRP2) | tolerance of i.v. doses higher than 3 mg/kg (rats) | outcome of intravenous injection (rats; iv, 40 mg/kg) | effect on initial liver uptake (AUCRliver/blood 0–3 min) of [99mTc]mebrofenin [1] | change in AUCRbile/liver of [99mTc]mebrofenin (biliary excretion) ([2]; mice, higher doses of RIF) | change in AUCRbile/liver of [99mTc]mebrofenin (biliary excretion) [2, 3] | effect on liver uptake of [99mTc]mebrofenin [2, 3] | fold decrease in AUCRbile/liver with MRP2-deficiency ([2]; MRP2-deficient mice)
1 |  | COc1ccc([C@@H]2Sc3ccccc3N(CCN(C)C)C(=O)[C@@H]2OC(C)=O)cc1 [DTZ, Diltiazem] | 5.36 | poor tolerance | lethal | did not affect |  |  |  | 
2 | > 500 µM | CO[C@H]1/C=C/O[C@@]2(C)Oc3c(C)c(O)c4c(O)c(c(/C=N/N5CCN(C)CC5)c(O)c4c3C2=O)NC(=O)/C(C)=C\C=C\[C@H](C)[C@H](O)[C@@H](C)[C@@H](O)[C@@H](C)[C@H](OC(C)=O)[C@@H]1C [RIF, rifampicin] | 3.68 |  |  |  | −94% | −25% | did not impact | 
3 |  | Cc1cc(C)c(NC(=O)CN(CC(=O)[O-])CC(=O)[O-])c(C)c1Br.Cc1cc(C)c(NC(=O)CN(CC(=O)[O-])CC(=O)[O-])c(C)c1Br.[99Tc+4] [[^99mTc]mebrofenin] |  |  |  |  |  |  |  | ~ 10 fold
